Assays:
[1] = system: Human gammaherpesvirus 8; assay: Antiviral activity against Kaposi's sarcoma-associated herpesvirus infected in African green monkey Vero cells exposed to supernatant from 48 hrs compound treated human iSLK.219 cells infected with KSHV by GFP based microscopy; format: functional, cell-based; settings: Human gammaherpesvirus 8, Vero
[2] = Cytotoxicity against African green monkey Vero cells assessed as reduction in cell viability after 48 hrs by Alamar blue assay; format: toxicity, cell-based; settings: chlorocebus sabaeus
[3] = Selectivity index, ratio of CC50 for African green monkey Vero cells to EC50 for Kaposi's sarcoma-associated herpesvirus infected in African green monkey Vero cells; format: toxicity, cell-based; settings: read-out: Ratio CC50/EC50

SMILES | EC50 [1] [µM] | CC50 at 48 h [2] [µM] | selectivity ratio [3]
CC(C)C(=O)c1c(O)cc(O)c2c1O[C@]1(C)CC[C@H](C(C)(C)O)[C@H]2[C@@H]1O | 141 | > 500 | > 3.55
CC(C)C(=O)c1c(O)cc(O)c2c1OC(C)(C)[C@H]1CC[C@](C)(O)[C@@H]1C2 | 17.7 | 221 | 
CC(C)C(=O)c1c(O)cc(O)c2c1O[C@@]1(C)CC[C@H](C(C)(C)O)O[C@H]1C2 | 8.75 | 141 | 
CC(C)C(=O)c1c(O)cc(O)c2c1O[C@]1(C)CC[C@@H](C(C)(C)O)O[C@@H]1C2 | 29.1 | 174 | 
CC(C)C(=O)c1c(O)cc(O)c2c1OC(C)(C)[C@@H]1CC[C@@](C)(O)[C@H]1C2 | 39.8 | > 300 | 

The next lines start with results.

EC50 [1] [µM] | SMILES | CC50 at 48 h [2] [µM] | selectivity ratio [3]
158 | CC(C)C(=O)c1c(O)cc(O)c(C[C@@H]2[C@@H](C(C)(C)O)CC[C@]2(C)O)c1O | > 300 | > 1.89
203 | CC(C)C(=O)c1c(O)cc(O)c2c1O[C@@]1(C)CC[C@@H](C(C)(C)O)[C@@H]2[C@H]1O | > 500 | > 2.46
40 | CC(C)C(=O)c1c(O)cc(O)c(C[C@H]2[C@H](C(C)(C)O)CC[C@@]2(C)O)c1O | > 300 | > 7.5
